According to US9353089B2, “Compositions and methods for the treatment of malaria” (Saint Louis University, priority 2013, dated 2016):

system: Plasmodium falciparum 3D7 (CQ-sensitive); test: In vitro antimalarial assay (malaria SYBR Green I-based fluorescence, MSF), 3D7; assay type: cell-based; conditions: 3D7, Table 11, read-out: Pf 3D7 IC50
Description: Stock solutions of each test drug were prepared in DMSO at a concentration of 20 mM. The drug solutions were serially diluted with culture medium and distributed to asynchronous parasite cultures on 96-well plates in quadruplicate in a total volume of 100 μL to achieve 0.5% parasitemia with a 2% hematocrit in a total volume of 100 pt. […] After incubation, 100 μL of lysis buffer with 0.2 μL/mL SYBR Green I was added to each well.
Antimalarial potency of compounds was determined by this technique for both Plasmodium falciparum 3D7 (CQ-sensitive) and Dd2 (multi-drug resistant) strains.

Row | SMILES | IC50
1 | N=C1NC(c2cccc(-c3cccnc3)c2)(c2cccc(-c3cccnc3)c2)C(=O)N1C1CCCCC1 [Example 269, 3-cyclohexyl-2-imino-5,5-bis[3-(pyridin-3-yl)phenyl]imidazolidin-4-one] | 0.725 µM
2 | Cc1cccc(C2(c3cccc(C)c3)NC(=N)N(C3CCCCC3)C2=O)c1 [Example 237, 3-cyclohexyl-2-imino-5,5-bis(3-methylphenyl)-imidazolidin-4-one] | 0.533 µM
3 | N=C1NC(c2cccc(Cl)c2)(c2cccc(Cl)c2)C(=O)N1C1CCCCC1 [Example 267, 5,5-bis(3-chlorophenyl)-3-cyclohexyl-2-iminoimidazolidin-4-one] | 1.06 µM
4 | N=C1NC(c2ccccc2)(c2cccc(Oc3ccccc3)c2)C(=O)N1C1CCCCC1 (centres unmarked) [Example 238, 3-cyclohexyl-2-imino-5-(3-phenoxyphenyl)-5-phenylimidazolidin-4-one] | 0.424 µM
5 | COc1cccc(C2(c3cccc(-c4ccncc4)c3)NC(=N)N(C3CCCCC3)C2=O)c1 (centres unmarked) [Example 225, 3-cyclohexyl-2-imino-5-(3-methoxy-phenyl)-5-[3-(pyridin-4-yl)phenyl]imidazolidin-4-one] | 0.318 µM

same assay, conditions: 3D7, Table 13, read-out: 3D7 IC50

Row | SMILES | IC50
6 | N=C1NC(c2ccc(Cl)cc2)(C2CC2)C(=O)N1C1CCCCC1 (centres unmarked) [Example 577, 5-(4-chlorophenyl)-3-cyclohexyl-5-cyclopropyl-2-iminoimidazolidin-4-one] | 1.67 µM
7 | C#Cc1cccc(-c2cccc(C3(C4CC4)NC(=N)N(C4CCOCC4)C3=O)c2)c1 (centres unmarked) [Example 497, 5-cyclopropyl-5-(3′-ethynyl-[1,1′-biphenyl]-3-yl)-2-imino-3-(tetrahydro-2H-pyran-4-yl)imidazolidin-4-one] | 1.15 µM
8 | COc1ccc(C2(c3ccc(OC)cc3)NC(=N)N(Cc3ccccc3Br)C2=O)cc1 [Example 307, 3-[(2-bromophenyl)-methyl]-2-imino-5,5-bis(4-methoxy-phenyl)imidazolidin-4-one] | 5.56 µM
9 | COc1ccc(C2(c3ccc(OC)cc3)NC(=N)N(Cc3ccccn3)C2=O)cc1 [Example 229, 2-imino-5,5-bis(4-methoxyphenyl)-3-(pyridin-2-ylmethyl)-imidazolidin-4-one] | 0.682 µM
10 | COc1ccc(C2(c3ccc(OC)cc3)NC(=N)N(Cc3ccccc3Cl)C2=O)cc1 [Example 234, 3-[(2-chlorophenyl)-methyl]-2-imino-5,5-bis(4-methoxyphenyl)-imidazolidin-4-one] | 0.894 µM
11 | N=C1NC(c2ccc(OC(F)(F)F)cc2)(C2CC2)C(=O)N1C1CCOCC1 (centres unmarked) [Example 494, 5-cyclopropyl-2-imino-3-(tetrahydro-2H-pyran-4-yl)-5-(4-(trifluoromethoxy)phenyl)imidazolidin-4-one] | 0.68 µM
12 | N=C1NC(c2ccc(O)cc2)(c2ccc(O)cc2)C(=O)N1C1CCOCC1 [Example 550, 5,5-bis(4-hydroxyphenyl)-2-imino-3-(tetrahydro-2H-pyran-4-yl)imidazolidin-4-one] | 2.48 µM
13 | N=C1NC(c2ccc(Cl)cc2)(C2CCCCC2)C(=O)N1C1CCCCC1 (centres unmarked) [Example 575, 5-(4-chlorophenyl)-3,5-dicyclohexyl-2-iminoimidazolidin-4-one] | 1.09 µM
14 | COc1ccc(C2(c3ccc(OC)cc3)NC(=N)N(C3CCN(Cc4cc(Cl)ccc4O)CC3)C2=O)cc1 [Example 569, 3-(1-(5-chloro-2-hydroxybenzyl)piperidin-4-yl)-2-imino-5,5-bis(4-methoxyphenyl)-imidazolidin-4-one] | 0.45 µM
15 | COc1ccc(C2(c3ccc(OC)cc3)NC(=N)N(Cc3cccc4ccccc34)C2=O)cc1 [Example 223, 2-imino-5,5-bis(4-methoxyphenyl)-3-(naphthalen-1-ylmethyl)-imidazolidin-4-one] | 0.644 µM
16 | N=C1NC(c2ccc(Cl)cc2)(C2CC2)C(=O)N1C1CCOCC1 (centres unmarked) [Example 496, 5-(4-chlorophenyl)-5-cyclopropyl-2-imino-3-(tetrahydro-2H-pyran-4-yl)imidazolidin-4-one] | 0.35 µM
17 | CC(C)COc1cccc(C2(c3cccc(OCC(C)C)c3)NC(=N)N(C3CCOCC3)C2=O)c1 [Example 389, 2-imino-5,5-bis[3-(2-methylpropoxy)phenyl]-3-(oxan-4-yl)imidazolidin-4-one] | > 5 µM
18 | N=C1NC(c2cccc(Cl)c2)(C2CC2)C(=O)N1C1CCOCC1 (centres unmarked) [Example 495, 5-(3-chlorophenyl)-5-cyclopropyl-2-imino-3-(tetrahydro-2H-pyran-4-yl)imidazolidin-4-one] | 0.93 µM
19 | COc1ccc(C2(c3ccc(OC)cc3)NC(=N)N(C3CCN(Cc4ccccc4O)CC3)C2=O)cc1 [Example 571, 3-(1-(2-hydroxybenzyl)piperidin-4-yl)-2-imino-5,5-bis(4-methoxyphenyl)-imidazolidin-4-one] | 0.4 µM
20 | N#Cc1cccc(-c2cccc(C3(C4CCCCC4)NC(=N)N(C4CCOCC4)C3=O)c2)c1 (centres unmarked) [Example 492, 3′-(4-cyclohexyl-2-imino-5-oxo-1-(tetrahydro-2H-pyran-4-yl)imidazolidin-4-yl)-[1,1′-biphenyl]-3-carbonitrile] | 1.11 µM
21 | N#Cc1cccc(-c2cccc(C3(C4CC4)NC(=N)N(C4CCOCC4)C3=O)c2)c1 (centres unmarked) [Example 414, 3′-(4-cyclopropyl-2-imino-5-oxo-1-(tetrahydro-2H-pyran-4-yl)imidazolidin-4-yl)-[1,1′-biphenyl]-3-carbonitrile] | 0.293 µM
22 | N=C1NC(c2cccc(-c3cccnc3)c2)(c2cccc(-c3cccnc3)c2)C(=O)N1C1CCCCC1 [Example 269, 3-cyclohexyl-2-imino-5,5-bis[3-(pyridin-3-yl)phenyl]imidazolidin-4-one] | 0.725 µM
23 | Cc1cccc(C2(c3cccc(C)c3)NC(=N)N(C3CCCCC3)C2=O)c1 [Example 237, 3-cyclohexyl-2-imino-5,5-bis(3-methylphenyl)-imidazolidin-4-one] | 0.533 µM
24 | COc1ccc(C2(c3ccc(OC)cc3)NC(=N)N(Cc3cccc(Cl)c3)C2=O)cc1 [Example 235, 3-[(3-chlorophenyl)-methyl]-2-imino-5,5-bis(4-methoxyphenyl)-imidazolidin-4-one] | 0.684 µM

Row | SMILES | IC50
25 | N=C1NC(c2ccc(O)cc2)(c2ccc(O)cc2)C(=O)N1C1CCCCC1 [Example 547, 3-cyclohexyl-5,5-bis(4-hydroxyphenyl)-2-iminoimidazolidin-4-one] | 0.85 µM
26 | COc1ccc(C2(c3ccc(OC)cc3)NC(=N)N(Cc3cccc(C(F)(F)F)c3)C2=O)cc1 [Example 249, 2-imino-5,5-bis(4-methoxyphenyl)-3-{[3-(trifluoromethyl)-phenyl]methyl} imidazolidin-4-one] | 1.52 µM
27 | COc1ccccc1C1(C2CC2)NC(=N)N(C2CCOCC2)C1=O (centres unmarked) [Example 518, 5-cyclopropyl-2-imino-5-(2-methoxyphenyl)-3-(tetrahydro-2H-pyran-4-yl)imidazolidin-4-one] | 5.32 µM
28 | N=C1NC(c2cccc(O)c2)(C2CC2)C(=O)N1C1CCCCC1 (centres unmarked) [Example 549, 3-cyclohexyl-5-cyclopropyl-5-(3-hydroxyphenyl)-2-iminoimidazolidin-4-one] | 1.33 µM
29 | COc1ccc(C2(c3ccc(OC)cc3)NC(=N)N(Cc3cccc(C)c3)C2=O)cc1 [Example 253, 2-imino-5,5-bis(4-methoxyphenyl)-3-[(3-methylphenyl)-methyl]imidazolidin-4-one] | 0.381 µM
30 | COc1cccc(C2(c3cccc(-c4ccccn4)c3)NC(=N)N(C3CCCCC3)C2=O)c1 (centres unmarked) [Example 227, 3-cyclohexyl-2-imino-5-(3-methoxyphenyl)-5-[3-(pyridin-2-yl)phenyl]-imidazolidin-4-one] | 0.657 µM
31 | N#Cc1cccc(-c2cccc(C3(C4CC4)NC(=N)N(C4CCCCC4)C3=O)c2)c1 (centres unmarked) [Example 486, 3′-(1-cyclohexyl-4-cyclopropyl-2-imino-5-oxoimidazolidin-4-yl)-[1,1′-biphenyl]-3-carbonitrile] | 1.46 µM
32 | COc1ccc(C2(c3ccc(OC)cc3)NC(=N)N(Cc3ccc(Cl)cc3)C2=O)cc1 [Example 232, 3-[(4-chlorophenyl)-methyl]-2-imino-5,5-bis(4-methoxyphenyl)-imidazolidin-4-one] | 1.27 µM
33 | N=C1NC(c2cccc(Cl)c2)(c2cccc(Cl)c2)C(=O)N1C1CCCCC1 [Example 267, 5,5-bis(3-chlorophenyl)-3-cyclohexyl-2-iminoimidazolidin-4-one] | 1.06 µM
34 | N=C1NC(c2ccccc2)(c2cccc(Oc3ccccc3)c2)C(=O)N1C1CCCCC1 (centres unmarked) [Example 238, 3-cyclohexyl-2-imino-5-(3-phenoxyphenyl)-5-phenylimidazolidin-4-one] | 0.424 µM
35 | COc1ccc(C2(c3ccc(OC)cc3)NC(=N)N(Cc3cc(C)ccc3C)C2=O)cc1 [Example 272, 3-[(2,5-dimethylphenyl)-methyl]-2-imino-5,5-bis(4-methoxyphenyl) imidazolidin-4-one] | 0.976 µM
36 | N=C1NC(c2ccc(F)c(F)c2)(C2CC2)C(=O)N1C1CCOCC1 (centres unmarked) [Example 498, 5-cyclopropyl-5-(3,4-difluorophenyl)-2-imino-3-(tetrahydro-2H-pyran-4-yl)imidazolidin-4-one] | 1.29 µM
37 | COc1cccc(C2(c3cccc(-c4ccncc4)c3)NC(=N)N(C3CCCCC3)C2=O)c1 (centres unmarked) [Example 225, 3-cyclohexyl-2-imino-5-(3-methoxy-phenyl)-5-[3-(pyridin-4-yl)phenyl]imidazolidin-4-one] | 0.318 µM
38 | N=C1NC(c2cccc(-c3cncc(Cl)c3)c2)(C2CC2)C(=O)N1C1CCCCC1 (centres unmarked) [Example 514, 5-(3-(5-chloropyridin-3-yl)phenyl)-3-cyclohexyl-5-cyclopropyl-2-iminoimidazolidin-4-one] | 0.97 µM
39 | N=C1NC(c2ccc(Cl)cc2)(C2CCCCC2)C(=O)N1C1CCOCC1 (centres unmarked) [Example 574, 5-(4-chlorophenyl)-5-cyclohexyl-2-imino-3-(tetrahydro-2H-pyran-4-yl)imidazolidin-4-one] | 0.27 µM
40 | COc1ccc(C2(c3ccc(OC)cc3)NC(=N)N(Cc3ccc(C)cc3)C2=O)cc1 [Example 231, 2-imino-5,5-bis(4-methoxyphenyl)-3-[(4-methylphenyl)-methyl]imidazolidin-4-one] | 0.795 µM
41 | COc1ccc(CN2C(=N)NC(c3ccc(OC)cc3)(c3ccc(OC)cc3)C2=O)cc1 [Example 233, 2-imino-5,5-bis(4-methoxyphenyl)-3-[(4-methoxyphenyl)-methyl]imidazolidin-4-one] | 0.554 µM
42 | CNC(=O)c1cccc(C2(c3ccccc3)NC(=N)N(C3CCCCC3)C2=O)c1 (centres unmarked) [Example 273, 3-(1-cyclohexyl-2-imino-5-oxo-4-phenylimidazolidin-4-yl)-N-methylbenzamide] | 1.38 µM

same assay, conditions: 3D7, read-out: 3D7 IC50 (μM), Table 13

Row | SMILES | IC50
43 | N=C1NC(c2cccc(-c3cccnc3)c2)(C2CC2)C(=O)N1C1CCCCC1 (centres unmarked) [Example 512, 3-cyclohexyl-5-cyclopropyl-2-imino-5-(3-(pyridin-3-yl)phenyl)imidazolidin-4-one] | 0.38 µM

same assay, conditions: 3D7, read-out: Pf3D7 IC50 (μM), Table 10

Row | SMILES | IC50
44 | CCC(CN1C(=N)NC(c2ccccc2)(c2ccccc2)C1=O)c1ccccc1 (centres unmarked) [drawing 195] | 2.76 µM
